Experimental data published in US11752120B2, “Use of succinic acid in increasing sensitivity of bacteria to antibiotics” (SUN YAT-SEN UNIVERSITY, priority 2018, dated 2023).

Legend:
E. coli K12 = assay: Minimum inhibitory concentration (MIC), NCCLS method, control strain; assay type: cell-based, Escherichia coli; conditions: no unit in table, MIC in μg/mL
Excerpt: (§1) Escherichia coli (E. coli) are one of the most common bacteria in the clinic. 30 strains of E. coli obtained from the clinic were named YT1-30. The minimum inhibitory concentrations (MIC) of 8 antibiotics against these 30 clinically obtained E. coli was detected according to the NCCLS method, and E. coli K12 was used as a control.

[1] = test system: clinical Escherichia coli YT1-30; assay: Minimum inhibitory concentration (MIC), NCCLS method, 30 clinical strains; assay type: cell-based; design: Minimum inhibitory concentration (MIC): unit not given here
Excerpt: as §1

Compound	Minimum inhibitory concentration (MIC) (E. coli K12)	Minimum inhibitory concentration (MIC) ([1]; strain YT1)	Minimum inhibitory concentration (MIC) ([1]; strain YT2)	Minimum inhibitory concentration (MIC) ([1]; strain YT3)	Minimum inhibitory concentration (MIC) ([1]; strain YT4)	Minimum inhibitory concentration (MIC) ([1]; strain YT5)	Minimum inhibitory concentration (MIC) ([1]; strain YT6)	Minimum inhibitory concentration (MIC) ([1]; strain YT7)	Minimum inhibitory concentration (MIC) ([1]; strain YT8)	Minimum inhibitory concentration (MIC) ([1]; strain YT9)	Minimum inhibitory concentration (MIC) ([1]; strain YT10)	Minimum inhibitory concentration (MIC) ([1]; strain YT11)	Minimum inhibitory concentration (MIC) ([1]; strain YT12)	Minimum inhibitory concentration (MIC) ([1]; strain YT13)	Minimum inhibitory concentration (MIC) ([1]; strain YT14)	Minimum inhibitory concentration (MIC) ([1]; strain YT15)	Minimum inhibitory concentration (MIC) ([1]; strain YT16)	Minimum inhibitory concentration (MIC) ([1]; strain YT17)	Minimum inhibitory concentration (MIC) ([1]; strain YT18)	Minimum inhibitory concentration (MIC) ([1]; strain YT19)	other results
NCC[C@H](O)C(=O)N[C@@H]1C[C@H](N)[C@@H](O[C@H]2O[C@H](CN)[C@@H](O)[C@H](O)[C@H]2O)[C@H](O)[C@H]1O[C@H]1O[C@H](CO)[C@@H](O)[C@H](N)[C@H]1O [Amikacin]	0.61	9.765	9.765	9.765	9.765	9.765	9.765	9.765	9.765	2.441	39.0625	2500	2500	2500	2500	2500	2500	2500	2.441	9.76	Minimum inhibitory concentration (MIC) ([1]; strain YT20): 2.441; Minimum inhibitory concentration (MIC) ([1]; strain YT21): 2500; Minimum inhibitory concentration (MIC) ([1]; strain YT22): 625; Minimum inhibitory concentration (MIC) ([1]; strain YT23): 9.765; Minimum inhibitory concentration (MIC) ([1]; strain YT24): 9.765; Minimum inhibitory concentration (MIC) ([1]; strain YT25): 2500; Minimum inhibitory concentration (MIC) ([1]; strain YT26): 2500; Minimum inhibitory concentration (MIC) ([1]; strain YT27): 9.765; Minimum inhibitory concentration (MIC) ([1]; strain YT28): 2500; Minimum inhibitory concentration (MIC) ([1]; strain YT29): 9.765; Minimum inhibitory concentration (MIC) ([1]; strain YT30): 2.441
CNC1CCCN(c2c(F)cc3c(=O)c(C(=O)O)cn(C4CC4)c3c2OC)C1 (stereo not shown) [Balofloxacin]	0.015	0.244	3.906	15.625	250	250	62.5	15.625	250	250	15.625	3.906	62.5	62.5	15.625	15.625	250	250	62.5	62.5	Minimum inhibitory concentration (MIC) ([1]; strain YT20): 62.5; Minimum inhibitory concentration (MIC) ([1]; strain YT21): 15.625; Minimum inhibitory concentration (MIC) ([1]; strain YT22): 62.5; Minimum inhibitory concentration (MIC) ([1]; strain YT23): 15.625; Minimum inhibitory concentration (MIC) ([1]; strain YT24): 15.625; Minimum inhibitory concentration (MIC) ([1]; strain YT25): 0.244; Minimum inhibitory concentration (MIC) ([1]; strain YT26): 15.625; Minimum inhibitory concentration (MIC) ([1]; strain YT27): 15.625; Minimum inhibitory concentration (MIC) ([1]; strain YT28): 15.625; Minimum inhibitory concentration (MIC) ([1]; strain YT29): 15.625; Minimum inhibitory concentration (MIC) ([1]; strain YT30): 15.625
CC(C)(O/N=C(\C(=O)N[C@@H]1C(=O)N2C(C(=O)[O-])=C(C[n+]3ccccc3)CS[C@H]12)c1csc(N)n1)C(=O)O [Ceftazidime]	0.122	0.122	0.488	0.488	0.488	7.81	1.953	0.488	0.488	0.488	7.812	7.812	0.488	0.488	0.488	0.488	0.488	0.488	0.488	0.488	MIC compared with the control E. coli K12 ([1]; strain YT1): the same as the control; Minimum inhibitory concentration (MIC) ([1]; strain YT20): 0.122; Minimum inhibitory concentration (MIC) ([1]; strain YT21): 0.488; Minimum inhibitory concentration (MIC) ([1]; strain YT22): 0.488; Minimum inhibitory concentration (MIC) ([1]; strain YT23): 0.488; Minimum inhibitory concentration (MIC) ([1]; strain YT24): 7.812; Minimum inhibitory concentration (MIC) ([1]; strain YT25): 31.25; Minimum inhibitory concentration (MIC) ([1]; strain YT26): 31.25; Minimum inhibitory concentration (MIC) ([1]; strain YT27): 0.488; Minimum inhibitory concentration (MIC) ([1]; strain YT28): 31.25; Minimum inhibitory concentration (MIC) ([1]; strain YT29): 7.812; Minimum inhibitory concentration (MIC) ([1]; strain YT30): 7.812
